According to ChEMBL document CHEMBL5653615 (J Biol Chem, 2013):
Activity calls are given as the source filed them. The rule behind the calls is not given here.

Key:
[1] = target: Mast/stem cell growth factor receptor Kit (Homo sapiens) (UniProt P10721); test: Inhibition of human c-Kit at 500 nM by HotSpot assay relative to control
[2] = target: Epidermal growth factor receptor (Homo sapiens) (UniProt P00533); test: Inhibition of human EGFR at 500 nM by HotSpot assay relative to control
[3] = target: Focal adhesion kinase 1 (Homo sapiens) (UniProt Q05397); test: Inhibition of human FAK at 500 nM by HotSpot assay relative to control
[4] = target: Macrophage colony-stimulating factor 1 receptor (Homo sapiens) (UniProt P07333); test: Inhibition of human FMS at 500 nM by HotSpot assay relative to control
[5] = target: G protein-coupled receptor kinase 5 (Homo sapiens) (UniProt P34947); test: Inhibition of human GRK5 at 500 nM by HotSpot assay relative to control
[6] = target: Mitogen-activated protein kinase kinase kinase kinase 4 (Homo sapiens) (UniProt O95819); test: Inhibition of human HGK at 500 nM by HotSpot assay relative to control
Mitogen-activated protein kinase kinase kinase kinase 4 (Homo sapiens), sequence (O95819 2-1239 limits assumed): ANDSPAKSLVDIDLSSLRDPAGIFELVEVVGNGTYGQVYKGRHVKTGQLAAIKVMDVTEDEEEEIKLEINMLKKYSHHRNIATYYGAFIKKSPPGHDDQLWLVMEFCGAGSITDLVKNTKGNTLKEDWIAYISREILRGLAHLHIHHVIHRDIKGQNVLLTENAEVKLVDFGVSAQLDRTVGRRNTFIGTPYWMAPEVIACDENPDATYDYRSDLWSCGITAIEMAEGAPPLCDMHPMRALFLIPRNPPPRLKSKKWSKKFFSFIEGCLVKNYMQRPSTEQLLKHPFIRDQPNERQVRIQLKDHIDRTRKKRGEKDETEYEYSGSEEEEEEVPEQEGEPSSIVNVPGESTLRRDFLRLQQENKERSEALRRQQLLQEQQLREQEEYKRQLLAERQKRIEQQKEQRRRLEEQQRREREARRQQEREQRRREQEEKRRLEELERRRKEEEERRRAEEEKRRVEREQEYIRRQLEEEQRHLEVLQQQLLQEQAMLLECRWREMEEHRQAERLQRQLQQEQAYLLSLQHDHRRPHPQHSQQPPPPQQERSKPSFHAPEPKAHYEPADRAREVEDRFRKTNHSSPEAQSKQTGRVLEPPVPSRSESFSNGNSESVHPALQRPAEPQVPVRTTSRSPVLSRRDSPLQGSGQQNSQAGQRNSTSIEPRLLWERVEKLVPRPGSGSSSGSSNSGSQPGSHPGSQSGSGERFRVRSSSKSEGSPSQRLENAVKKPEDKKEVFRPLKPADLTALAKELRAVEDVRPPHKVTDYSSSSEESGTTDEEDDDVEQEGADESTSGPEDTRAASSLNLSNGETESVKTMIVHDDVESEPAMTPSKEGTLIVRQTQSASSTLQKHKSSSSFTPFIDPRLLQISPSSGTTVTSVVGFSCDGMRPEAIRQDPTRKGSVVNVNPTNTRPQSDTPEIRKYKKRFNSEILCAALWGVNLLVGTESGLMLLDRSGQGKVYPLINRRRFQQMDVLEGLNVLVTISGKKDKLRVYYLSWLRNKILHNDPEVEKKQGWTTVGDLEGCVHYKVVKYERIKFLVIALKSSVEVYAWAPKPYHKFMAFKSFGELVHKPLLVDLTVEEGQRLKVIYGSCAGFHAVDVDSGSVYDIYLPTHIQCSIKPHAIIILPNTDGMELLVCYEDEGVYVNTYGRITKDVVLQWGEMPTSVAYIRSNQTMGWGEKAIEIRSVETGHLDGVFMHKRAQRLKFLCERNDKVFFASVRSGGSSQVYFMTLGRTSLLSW

[7] = target: Homeodomain-interacting protein kinase 3 (Homo sapiens) (UniProt Q9H422); test: Inhibition of human HIPK3 at 500 nM by HotSpot assay relative to control
[8] = target: T1, Tyrosine-protein kinase ITK/TSK (Homo sapiens) (UniProt Q08881); test: Inhibition of human ITK at 500 nM by HotSpot assay relative to control
T1 sequence (whole entry): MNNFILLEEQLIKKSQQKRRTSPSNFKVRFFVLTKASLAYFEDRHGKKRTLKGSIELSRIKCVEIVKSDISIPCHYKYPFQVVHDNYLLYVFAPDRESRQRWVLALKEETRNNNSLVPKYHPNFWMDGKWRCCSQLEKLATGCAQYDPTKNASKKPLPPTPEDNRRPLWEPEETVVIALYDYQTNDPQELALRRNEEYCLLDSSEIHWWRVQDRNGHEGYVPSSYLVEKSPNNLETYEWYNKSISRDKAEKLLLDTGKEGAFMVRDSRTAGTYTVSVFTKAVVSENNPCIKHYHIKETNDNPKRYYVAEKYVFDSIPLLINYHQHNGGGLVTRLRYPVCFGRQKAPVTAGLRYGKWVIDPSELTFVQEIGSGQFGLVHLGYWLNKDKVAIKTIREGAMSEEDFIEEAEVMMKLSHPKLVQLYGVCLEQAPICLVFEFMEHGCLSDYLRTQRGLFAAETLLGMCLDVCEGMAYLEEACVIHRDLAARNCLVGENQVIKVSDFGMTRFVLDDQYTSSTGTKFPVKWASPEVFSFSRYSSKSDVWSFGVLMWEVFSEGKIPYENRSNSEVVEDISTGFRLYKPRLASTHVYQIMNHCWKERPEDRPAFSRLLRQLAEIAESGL

[9] = target: Mitogen-activated protein kinase 8 (Homo sapiens) (UniProt P45983); test: Inhibition of human JNK1 at 500 nM by HotSpot assay relative to control
Mitogen-activated protein kinase 8 (Homo sapiens), sequence (P45983 whole entry): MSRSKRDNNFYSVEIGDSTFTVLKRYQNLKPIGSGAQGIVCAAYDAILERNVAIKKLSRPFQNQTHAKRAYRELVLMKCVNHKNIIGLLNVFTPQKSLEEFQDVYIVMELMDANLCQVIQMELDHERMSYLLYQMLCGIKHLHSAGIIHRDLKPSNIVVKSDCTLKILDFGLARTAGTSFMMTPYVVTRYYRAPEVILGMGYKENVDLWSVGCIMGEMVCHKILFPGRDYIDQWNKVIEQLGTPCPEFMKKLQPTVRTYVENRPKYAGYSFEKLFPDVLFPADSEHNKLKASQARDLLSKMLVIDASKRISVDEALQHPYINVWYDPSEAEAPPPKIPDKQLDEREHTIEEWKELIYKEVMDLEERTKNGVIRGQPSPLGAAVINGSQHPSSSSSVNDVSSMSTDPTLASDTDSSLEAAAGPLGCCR

[10] = target: Mitogen-activated protein kinase 9 (Homo sapiens) (UniProt P45984); test: Inhibition of human JNK2 at 500 nM by HotSpot assay relative to control
[11] = target: Mitogen-activated protein kinase 10 (Homo sapiens) (UniProt P53779); test: Inhibition of human JNK3 at 500 nM by HotSpot assay relative to control
Mitogen-activated protein kinase 10 (Homo sapiens), sequence (P53779 whole entry): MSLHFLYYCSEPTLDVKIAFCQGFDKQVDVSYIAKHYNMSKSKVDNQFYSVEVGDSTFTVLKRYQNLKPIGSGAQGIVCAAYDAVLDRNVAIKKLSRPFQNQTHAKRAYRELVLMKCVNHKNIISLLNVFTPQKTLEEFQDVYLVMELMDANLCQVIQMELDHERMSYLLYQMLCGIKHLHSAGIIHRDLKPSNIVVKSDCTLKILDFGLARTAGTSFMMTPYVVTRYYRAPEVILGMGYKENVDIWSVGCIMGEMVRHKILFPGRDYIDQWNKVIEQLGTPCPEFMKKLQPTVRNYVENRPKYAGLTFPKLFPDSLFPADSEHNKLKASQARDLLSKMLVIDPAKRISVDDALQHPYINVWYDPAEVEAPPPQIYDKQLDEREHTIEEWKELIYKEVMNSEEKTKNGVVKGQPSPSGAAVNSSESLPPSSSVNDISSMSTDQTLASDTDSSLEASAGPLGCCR

[12] = target: Tyrosine-protein kinase Lyn (Homo sapiens) (UniProt P07948); test: Inhibition of human LYN at 500 nM by HotSpot assay relative to control
[13] = target: Dual specificity mitogen-activated protein kinase kinase 2 (Homo sapiens) (UniProt P36507); test: Inhibition of human MEK2 at 500 nM by HotSpot assay relative to control
[14] = target: T2, Mitogen-activated protein kinase 13 (Homo sapiens) (UniProt O15264); test: Inhibition of human MAPK13 at 500 nM by HotSpot assay relative to control
T2 sequence (whole entry): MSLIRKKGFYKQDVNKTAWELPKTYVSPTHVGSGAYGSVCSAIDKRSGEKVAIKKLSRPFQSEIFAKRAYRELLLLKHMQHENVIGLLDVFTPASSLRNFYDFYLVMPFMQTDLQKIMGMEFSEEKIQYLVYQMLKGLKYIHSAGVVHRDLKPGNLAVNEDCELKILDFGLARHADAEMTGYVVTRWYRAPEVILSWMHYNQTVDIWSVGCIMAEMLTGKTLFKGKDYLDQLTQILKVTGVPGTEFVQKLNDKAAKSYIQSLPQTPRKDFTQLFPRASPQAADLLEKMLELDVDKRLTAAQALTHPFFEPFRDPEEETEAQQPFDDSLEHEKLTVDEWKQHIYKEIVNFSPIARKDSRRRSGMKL

[15] = target: PAS domain-containing serine/threonine-protein kinase (Homo sapiens) (UniProt Q96RG2); test: Inhibition of human PASK at 500 nM by HotSpot assay relative to control
[16] = target: Platelet-derived growth factor receptor alpha (Homo sapiens) (UniProt P16234); test: Inhibition of human PDGFRa at 500 nM by HotSpot assay relative to control
[17] = target: Protein kinase C eta type (Homo sapiens) (UniProt P24723); test: Inhibition of human PKCeta at 500 nM by HotSpot assay relative to control
[18] = target: RAF proto-oncogene serine/threonine-protein kinase (Homo sapiens) (UniProt P04049); test: Inhibition of human RAF1 at 500 nM by HotSpot assay relative to control
[19] = target: Macrophage-stimulating protein receptor (Homo sapiens) (UniProt Q04912); test: Inhibition of human MST1R at 500 nM by HotSpot assay relative to control
[20] = target: STE20-like serine/threonine-protein kinase (Homo sapiens) (UniProt Q9H2G2); test: Inhibition of human STK2 at 500 nM by HotSpot assay relative to control
STE20-like serine/threonine-protein kinase (Homo sapiens), sequence (Q9H2G2 whole entry, looked up): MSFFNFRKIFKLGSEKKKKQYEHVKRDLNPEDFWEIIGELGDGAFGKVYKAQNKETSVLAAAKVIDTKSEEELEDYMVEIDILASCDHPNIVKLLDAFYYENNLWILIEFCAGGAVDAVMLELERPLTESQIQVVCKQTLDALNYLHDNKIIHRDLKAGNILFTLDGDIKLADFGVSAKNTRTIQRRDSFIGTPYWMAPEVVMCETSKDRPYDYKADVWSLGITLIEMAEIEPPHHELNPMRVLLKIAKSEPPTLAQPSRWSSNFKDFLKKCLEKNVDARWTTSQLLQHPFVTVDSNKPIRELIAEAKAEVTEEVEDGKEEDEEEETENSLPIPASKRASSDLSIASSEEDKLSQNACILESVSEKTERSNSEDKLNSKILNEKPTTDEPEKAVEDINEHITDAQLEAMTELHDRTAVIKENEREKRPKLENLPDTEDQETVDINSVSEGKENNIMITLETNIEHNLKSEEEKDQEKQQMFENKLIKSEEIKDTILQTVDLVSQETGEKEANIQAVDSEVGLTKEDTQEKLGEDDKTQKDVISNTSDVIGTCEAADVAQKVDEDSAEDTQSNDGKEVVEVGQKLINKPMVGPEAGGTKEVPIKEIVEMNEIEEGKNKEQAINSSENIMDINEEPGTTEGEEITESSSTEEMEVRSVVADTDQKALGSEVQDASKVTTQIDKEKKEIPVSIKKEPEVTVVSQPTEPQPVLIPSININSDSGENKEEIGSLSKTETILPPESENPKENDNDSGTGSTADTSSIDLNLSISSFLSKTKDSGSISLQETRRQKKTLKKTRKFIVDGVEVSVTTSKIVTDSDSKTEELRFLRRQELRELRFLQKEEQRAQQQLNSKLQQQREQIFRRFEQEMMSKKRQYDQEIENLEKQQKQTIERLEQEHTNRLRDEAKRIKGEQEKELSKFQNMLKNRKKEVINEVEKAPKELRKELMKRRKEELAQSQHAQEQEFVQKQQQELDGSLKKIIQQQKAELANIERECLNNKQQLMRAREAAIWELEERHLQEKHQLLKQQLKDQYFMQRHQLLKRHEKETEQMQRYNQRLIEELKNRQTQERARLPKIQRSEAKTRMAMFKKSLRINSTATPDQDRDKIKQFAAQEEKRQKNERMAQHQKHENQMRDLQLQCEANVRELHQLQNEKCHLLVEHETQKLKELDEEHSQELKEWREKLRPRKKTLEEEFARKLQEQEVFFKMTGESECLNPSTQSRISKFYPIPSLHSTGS

[21] = target: STE20/SPS1-related proline-alanine-rich protein kinase (Homo sapiens) (UniProt Q9UEW8); test: Inhibition of human STLK3 at 500 nM by HotSpot assay relative to control
[22] = target: Insulin receptor (Homo sapiens) (UniProt P06213); test: Inhibition of wild-type human Insulin receptor activation transfected in insulin-stimulated CHO-K1 cells; format: cell-based
Insulin receptor (Homo sapiens), sequence (P06213 28-758 limits assumed): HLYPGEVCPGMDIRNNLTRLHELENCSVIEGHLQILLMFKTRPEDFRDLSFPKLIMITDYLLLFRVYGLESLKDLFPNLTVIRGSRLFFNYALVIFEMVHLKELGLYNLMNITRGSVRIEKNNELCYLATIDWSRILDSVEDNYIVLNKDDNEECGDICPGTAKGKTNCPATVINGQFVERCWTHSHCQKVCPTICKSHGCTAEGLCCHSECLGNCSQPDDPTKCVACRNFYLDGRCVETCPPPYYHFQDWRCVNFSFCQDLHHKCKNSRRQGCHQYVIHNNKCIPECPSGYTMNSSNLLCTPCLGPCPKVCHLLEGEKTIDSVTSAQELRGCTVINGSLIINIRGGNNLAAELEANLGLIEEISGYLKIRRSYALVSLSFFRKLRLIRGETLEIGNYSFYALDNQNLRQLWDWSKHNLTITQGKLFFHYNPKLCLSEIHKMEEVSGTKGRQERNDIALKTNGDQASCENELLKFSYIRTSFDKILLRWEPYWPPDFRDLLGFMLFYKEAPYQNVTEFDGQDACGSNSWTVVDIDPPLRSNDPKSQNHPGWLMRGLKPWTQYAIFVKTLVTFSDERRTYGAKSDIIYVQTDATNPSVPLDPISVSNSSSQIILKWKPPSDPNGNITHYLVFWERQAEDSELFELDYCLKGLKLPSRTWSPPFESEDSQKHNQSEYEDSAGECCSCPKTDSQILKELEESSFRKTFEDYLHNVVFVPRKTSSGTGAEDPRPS
Insulin receptor (Homo sapiens), sequence (P06213 763-1382 limits assumed): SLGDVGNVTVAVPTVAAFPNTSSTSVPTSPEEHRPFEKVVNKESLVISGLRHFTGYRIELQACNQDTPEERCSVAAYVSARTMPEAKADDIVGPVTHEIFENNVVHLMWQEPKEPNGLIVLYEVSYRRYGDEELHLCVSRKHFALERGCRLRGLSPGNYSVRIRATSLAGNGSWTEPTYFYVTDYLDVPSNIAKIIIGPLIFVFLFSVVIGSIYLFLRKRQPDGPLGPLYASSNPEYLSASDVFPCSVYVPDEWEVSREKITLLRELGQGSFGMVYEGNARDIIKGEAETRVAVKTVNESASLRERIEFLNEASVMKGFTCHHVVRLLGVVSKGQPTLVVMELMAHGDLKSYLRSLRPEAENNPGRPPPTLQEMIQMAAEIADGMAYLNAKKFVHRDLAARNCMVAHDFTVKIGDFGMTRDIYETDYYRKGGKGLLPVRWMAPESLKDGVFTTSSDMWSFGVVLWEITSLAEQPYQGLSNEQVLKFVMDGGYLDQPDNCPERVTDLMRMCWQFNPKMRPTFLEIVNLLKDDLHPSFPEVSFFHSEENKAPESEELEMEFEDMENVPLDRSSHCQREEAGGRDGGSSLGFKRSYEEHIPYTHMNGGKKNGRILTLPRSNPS

Row | SMILES | inhibition [1] | inhibition [2] | inhibition [3] | inhibition [4] | inhibition [5] | inhibition [6] | inhibition [7] | inhibition [8] | inhibition [9] | inhibition [10] | inhibition [11] | inhibition [12] | inhibition [13] | inhibition [14] | inhibition [15] | inhibition [16] | inhibition [17] | inhibition [18] | inhibition [19] | inhibition [20] | further results
1 | Oc1n[nH]c2nnc(-c3c(-c4ccccc4)nn4ccccc34)cc12 | 0.91% | 10% | -3.2% | 5% | -0.63% | 0.95% | -0.3% | 6.55% | 16.7% | 11.7% | 5.98% | 2.29% | 1.44% | 3.76% | -0.26% | -1.33% | 3.76% | 1.96% | -6.32% | 0.54% | inhibition [21]: 7.91%; inhibition [22]: inactive
2 | Nc1n[nH]c2nnc(-c3c(-c4ccccc4)nn4ccccc34)cc12 | 2.89% | 16.1% | 0.84% | 3.19% | -6.2% | 38% | -3.93% | 9.17% | 1.96% | 51.6% | -3.19% | 5.07% | 0.62% | -0.81% | 0.21% | 0.32% | 22.8% | 4.42% | -1.66% | 6.01% | inhibition [21]: 10.9%; inhibition [22]: inactive
